Counter-ions that a name gives are not always drawn.

In general, IC50 refers to the midpoint of a concentration-inhibition curve.

T1 sequence (P01116 1-188 isoform P01116-2 G12D): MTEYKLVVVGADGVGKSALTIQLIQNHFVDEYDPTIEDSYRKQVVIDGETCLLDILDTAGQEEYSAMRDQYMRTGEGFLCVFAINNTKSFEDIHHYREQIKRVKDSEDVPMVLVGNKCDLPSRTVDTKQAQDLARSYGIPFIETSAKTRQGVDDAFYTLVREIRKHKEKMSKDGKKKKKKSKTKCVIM

This assay addresses T1, KRAS-G12D and SOS1 (Homo sapiens, UniProt P01116, G12D).
T1 construct: purchased
The experiment in a line: Inhibition of KRAS-G12D/SOS1 binding (Cisbio binding kit, 665/615 ratio), Effect Embodiment A. The conditions noted are these: read-out: GTP-KRAS-G12D:SOS1 IC50. The method in brief:
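Test compounds were serially diluted 3-fold from the storage solution over 11 points and dispensed in duplicate wells at 1% final DMSO.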
On to `CCCN(C)CCCOc1nc(N2CC3CCC(C2)N3)c2cc(Cl)c(-c3cc(O)cc4ccccc34)c(F)c2n1` (single isomer, unassigned) [Compound 51b, 4-((R or S)-4-((1R,5S)-3,8-diazabicyclo[3.2.1]octan-3-yl)-6-chloro-8-fluoro-2-(3-(methyl(propyl)amino)propoxy)quinazolin-7-yl)naphthalen-2-ol], for which the IC50 was 50.8 µM.

In the case of `C#Cc1c(F)ccc2cccc(-c3c(F)cc4c(N5CC6CCC(C5)N6)nc(OC[C@@]56CCCN5C[C@H](F)C6)nc4c3F)c12` (single isomer, unassigned) [Compound 279b, (R or S)-4-((1R,5S)-3,8-diazacyclo[3.2.1]octyl-3-yl)-7-(8-ethynyl-7-fluoronaphthalen-1-yl)-6,8-difluoro-2-((2R,7aS)-2-fluorotetrahydro-1H-pyrrolidin-7a(5H)-yl)methoxy)quinazoline formate], the IC50 was 1.39 µM.

On to `CCc1c(F)ccc2cc(O)cc(-c3c(F)cc4c(N5CC6CCC(C5)N6)nc(OCCCN5C6CCC5COC6)nc4c3F)c12` (single isomer, unassigned) [Compound 215b, 4-((7R or 7S)-2-(3-(3-oxa-8-azabicyclo[3.2.1]octan-8-yl)propoxy)-4-((1R,5S)-3,8-diazabicyclo[3.2.1]octan-3-yl)-6,8-difluoroquinazolin-7-yl)-5-ethyl-6-fluoronaphthalen-2-ol diformate], for which the IC50 came to 1.58 µM.

Consider `CN(C)CCCOc1nc(N2C[C@H]3CC[C@@H](C2)N3)c2ccn(-c3cc(O)cc4ccccc34)c(=O)c2n1` [Compound 161, 4-((1R,5S)-3,8-diazabicyclo[3.2.1]octan-3-yl)-2-(3-(dimethylamino)propoxy)-7-(3-hydroxynaphthalen-1-yl)pyrido[3,4-d]pyrimidin-8(7H)-one dihydrochloride], for which the half-inhibitory concentration (IC50) was > 10 µM.

As to `Oc1cc(-c2c(Cl)cc3c(N4CC5CCC(C4)N5)nc(OCCCN4CCCCC4)nc3c2F)c2ccccc2c1` (single isomer, unassigned) [Compound 66b, 4-((R or S)-4-((1R,5S)-3,8-diazabicyclo[3.2.1]octan-3-yl)-6-chloro-8-fluoro-2-(3-(piperidin-1-yl)propoxy)quinazolin-7-yl)naphthalen-2-ol], the IC50 came out at 18 µM.

Consider `CN1CCC[C@H]1COc1nc(N2CC3NC(C2)C2CC32)c2cnc(-c3cc(O)cc4ccccc34)c(F)c2n1` (stereo partly drawn) [Compound 158, 4-(8-Fluoro-2-((S)-1-methylpyrrolidin-2-yl)methoxy)-4-((1R,2R,4S,5S)-7,9-diazatricyclo[3.3.1.0^2,4]nonan-7-yl)pyridinyl[4,3-d]pyrimidin-7-yl)naphthalen-2-ol diformate], for which the IC50 was 0.199 µM.

Regarding `CN(C)C1CN(c2nc(N3CC(N(C)C)C3)c3cc(Cl)c(-c4cc(O)cc5ccccc45)c(F)c3n2)C1` (single isomer, unassigned) [Compound 9b, (S or R)-4-(6-chloro-2,4-bis(3-(dimethylamino)azetidin-1-yl)-8-fluoro-7-yl)naphthalen-2-ol], the IC50 was > 200 µM.

In the case of `CN(C)C1CN(c2nc(N3C[C@H]4CC[C@@H]3CN4)c3cc(Cl)c(-c4cc(O)cc5ccccc45)c(F)c3n2)C1` (single isomer, unassigned) [Compound 1b, (S or R)-4-(4-((1R,4R)-2,5-diazabicyclo[2.2.2]octan-2-yl)-6-chloro-2-(3-(dimethylamino)azetidin-1-yl)-8-fluoroquinazolin-7-yl)naphthalen-2-ol], the IC50 worked out at 31.9 µM.

As for `CC1(C)CN(CCCOc2nc(N3CC4CCC(C3)N4)c3cc(Cl)c(-c4cc(O)cc5ccccc45)c(F)c3n2)CC(C)(C)O1` (single isomer, unassigned) [Compound 222, 4-((S or R)-4-((1R,5S)-3,8-diazabicyclo[3.2.1]octan-3-yl)-6-chloro-8-fluoro-2-(3-(2,2,6,6-tetramethylmorpholinyl)propoxy)quinazolin-7-yl)naphthalen-2-ol formate], the IC50 worked out at 0.581 µM.

With `CN(C)C1CN(c2nc(N3CC4CCC(C3)N4C(=N)N)c3cc(Cl)c(-c4cc(O)cc5ccccc45)c(F)c3n2)C1` (single isomer, unassigned) [Compound 85, (1R,5S)-3-((S or R)-6-chloro-2-(3-(dimethylamino)azetidin-1-yl)-8-fluoro-7-(3-hydroxynaphthalen-1-yl)quinazolin-4-yl)-3,8-diazabicyclo[3.2.1]octane-8-carboximidamide diformate], the IC50 stood at 4.79 µM.

Take `CN(CCN)c1nc(N2CC(N(C)C)C2)nc2c(F)c(-c3cc(O)cc4ccccc34)c(Cl)cc12` (single isomer, unassigned) [Compound 15a, (R or S)-4-(4((2-aminoethyl) (methyl)-amino)-6-chloro-2-(3-(dimethylamino)azetidin-1-yl)-8-fluoroquinazolin-7-yl)naphthalen-2-ol]: the IC50 turned out to be 1.35 µM.

For the molecule `CN(C)C1CN(c2nc(N3CC4CCC(C3)N4)c3cc(Cl)c(-c4c(O)cccc4F)c(F)c3n2)C1` (single isomer, unassigned) [Compound 43b, 2-((R or S)-4-((1R,5S)-3,8-diazabicyclo[3.2.1]octan-3-yl)-6-chloro-2-(3-(dimethylamino)azetidin-1-yl)-8-fluoroquinazolin-7-yl)-3-fluorophenol], the IC50 is 2.57 µM.

As to `CN1CCC[C@H]1COc1nc(N2C3CCC2C2CCC3N2)c2cc(Cl)c(-c3cc(O)cc4ccccc34)c(F)c2n1` (single isomer, unassigned) [Compound 152a, 4-((S or R)-6-chloro-8-fluoro-2-((S)-1-methylpyrrolidin-2-yl)methoxy)-4-((1R,2R,5S,6S)-9,10-diazatricyclo[4.2.1.1^2,5]decan-9-yl)quinazolin-7-yl)naphthalen-2-ol dihydrochloride], the IC50 was found to be 1.05 µM.

Regarding `CN(C)C1CN(c2nc(N3CCC4(CC3)CNC4)c3cc(Cl)c(-c4cc(O)cc5ccccc45)c(F)c3n2)C1` (single isomer, unassigned) [Compound 11a, (R or S)-4-(6-chloro-2-(3-(dimethylamino)azetidin-1-yl)-8-fluoro-4-(2,7-diazaspiro[3.5]nonan-7-yl)quinazolin-7-yl)naphthalen-2-ol], the IC50 stood at 1.53 µM.

With `CN(C)CCCCOc1nc(N2CC3CCC(C2)N3)c2cc(Cl)c(-c3cc(O)cc4ccccc34)c(F)c2n1` (single isomer, unassigned) [Compound 60b, 4-((R or S)-4-((1R,5S)-3,8-diazabicyclo[3.2.1]octan-3-yl)-6-chloro-2-(4-(dimethylamino)butoxy)-8-fluoroquinazolin-7-yl)naphthalen-2-ol], the IC50 stood at 72.4 µM.

For the molecule `CN1CCCC[C@H]1COc1nc(N2CC3CCC(C2)N3)c2cc(Cl)c(-c3cc(O)cc4ccccc34)c(F)c2n1` (single isomer, unassigned) [Compound 56b, 4-((R or S)-4-((1R,5S)-3,8-diazabicyclo[3.2.1]octan-3-yl)-6-chloro-8-fluoro-2-((S)-1-methylpiperidin-2-yl)methoxy)quinazolin-7-yl)naphthalen-2-ol dihydrochloride], the IC50 is 15.7 µM.

Turning to `CN(C)C1CN(c2nc(N3CC(C(=N)N)C3)c3cc(Cl)c(-c4cc(O)cc5ccccc45)c(F)c3n2)C1` [Compound 77, (S)-1-(6-chloro-2-(3-(dimethylamino)azetidin-1-yl)-8-fluoro-7-(3-hydroxynaphthalen-1-yl)quinazolin-4-yl)azetidine-3-carboximidamide], the IC50 came out at 1.03 µM.

In the case of `CN1CCC[C@H]1COc1nc(N2CC3CCC(C2)N3)c2cc(Cl)c(-c3cc(O)cc4ccccc34)c(F)c2n1` (single isomer, unassigned) [Compound 39b, (R or S)-4-(4-((1R,5S)-3,8-diazabicyclo[3.2.1]octan-3-yl)-6-chloro-8-fluoro-2-((S)-1-methylpyrrolidin-2-yl)methoxy)quinazolin-7-yl)naphthalen-2-ol], the IC50 was 17.7 µM.

Regarding `Oc1cc(-c2c(Cl)cc3c(N4CC5CCC(C4)N5)nc(OCC45CCCN4CCC5)nc3c2F)c2ccccc2c1` (single isomer, unassigned) [Compound 58b, 4-((R or S)-4-((1R,5S)-3,8-diazabicyclo[3.2.1]octan-3-yl)-6-chloro-8-fluoro-2-((tetrahydro-1H-pyrrolin-7a(5H)-yl)methoxy)quinazolin-7-yl)naphthalen-2-ol], the IC50 was determined as 15.1 µM.

`CN(C)C1CN(c2nc(N3CC(N(C)C)C3)c3cc(Cl)c(-c4cc(O)cc5ccccc45)c(F)c3n2)C1` (single isomer, unassigned) [Compound 9a, (R or S)-4-(6-chloro-2,4-bis(3-(dimethylamino)azetidin-1-yl)-8-fluoro-7-yl)naphthalen-2-ol]: the IC50 was 81.6 µM.

On to `CN1C[C@H]2C[C@H]2[C@H]1COc1nc(N2CC3CCC(C2)N3)c2cnc(-c3cc(O)cc4ccccc34)c(F)c2n1` [Compound 141, 4-(4-((1R,5S)-3,8-diazabicyclo[3.2.1]octan-3-yl)-8-fluoro-2-((1R,2S,5R)-3-methyl-3-azabicyclo[3.1.0]hexan-2-yl)methoxy)pyridin[4,3-d]pyrimidin-7-yl)naphthalen-2-ol dihydrochloride], for which the half-inhibitory concentration (IC50) was found to be 0.0876 µM.

With `CN(C)C1CN(c2nc(N3CC4(CCNCC4)C3)c3cc(Cl)c(-c4cc(O)cc5ccccc45)c(F)c3n2)C1` (single isomer, unassigned) [Compound 10b, (S or R)-4-(6-chloro-2-(3-(dimethylamino)azetidin-1-yl)-8-fluoro-4-(2,7-diazaspiro[3.5 5]nonan-2-yl)quinazolin-7-yl)naphthalen-2-ol], the IC50 was determined as 65.1 µM.

Regarding `N=[S+]1([O-])CC2CCC(C1)N2CCCOc1nc(N2CC3CCC(C2)N3)c2cc(Cl)c(-c3cc(O)cc4ccccc34)c(F)c2n1` (single isomer, unassigned) [Compound 213a, (1R,3S or 3R,5S)-8-(3-((4-((1R,5S)-3,8-diazabicyclo[3.2.1]octan-3-yl)-6-chloro-8-fluoro-7-(3-hydroxynaphthalen-1-yl)quinazolin-2-yl)oxy)propyl)-3-imino-3λ^6-thia-8-azabicyclo[3.2.1]octane 3-oxide formate], the IC50 amounted to 0.514 µM.
